Results taken from patent US6465433B1, “Boronic ester and acid compounds, synthesis and uses” (Millennium Pharmaceuticals, Inc., priority 1994, dated 2002).

Columns and labels:
[1] = target: T1, Human Leukocyte Elastase (Homo sapiens, UniProt P08246); test: Kinetic assay: inhibition of Human Leukocyte Elastase; format: biochemical; conditions: Table V
T1 sequence (P08246 30-267): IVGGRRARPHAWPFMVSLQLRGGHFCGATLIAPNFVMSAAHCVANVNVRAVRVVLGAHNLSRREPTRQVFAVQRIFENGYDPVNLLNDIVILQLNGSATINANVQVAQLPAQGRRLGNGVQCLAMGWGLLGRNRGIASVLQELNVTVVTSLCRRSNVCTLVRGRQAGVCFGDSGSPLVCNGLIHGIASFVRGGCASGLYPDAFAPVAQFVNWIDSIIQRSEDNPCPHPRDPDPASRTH

[2] = target: T2, Cathepsin G (Homo sapiens, UniProt P08311); test: Kinetic assay: inhibition of Cathepsin G; format: biochemical; conditions: Table V
T2 sequence (P08311 21-244): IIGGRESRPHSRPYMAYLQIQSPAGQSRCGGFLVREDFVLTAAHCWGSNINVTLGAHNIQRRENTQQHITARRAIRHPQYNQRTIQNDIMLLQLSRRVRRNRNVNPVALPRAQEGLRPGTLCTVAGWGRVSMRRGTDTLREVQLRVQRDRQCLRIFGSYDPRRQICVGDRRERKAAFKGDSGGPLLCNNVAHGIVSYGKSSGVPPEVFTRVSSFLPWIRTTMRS

[3] = test system: C2C12 cells; test: Inhibition of protein degradation in C2C12 cells; format: cell-based, mouse; conditions: Mus musculus, C2C12; 35S-methionine labelled cells; percent decrease in TCA soluble radioactivity; media with 50% serum
Experimental: One approach to testing drug candidates for their ability to inhibit the ATP-ubiquitin-dependent degradative process is to measure proteolysis in cultured cells (Rock, et al., Cell 78:761 (1994)). For example, the degradation of long-lived intracellular proteins can be measured in mouse C2C12 myoblast cells. Cells are incubated with ^35S-methionine for 48 hours to label long-lived proteins and then chased for 2 hours with medium containing unlabeled methionine. After the chase period, the cells are incubated for 4 hours in the presence or absence of the test compound. The amount of protein degradation in the cell can be measured by quantitating the trichloroacetic acid soluble radioactivity released from the pre-labeled proteins into the growth medium (an indicator of intracellular proteolysis).
C2C12 cells (a mouse myoblast line) were labelled for 48 hrs with ^35S-methionine. The cells were then washed and preincubated for 2 hrs in the same media supplemented with 2 mM unlabelled methionine. The media was removed and replaced with a fresh aliquot of the preincubation media containing 50% serum, and a concentration of the compound to be tested. The media was then removed and made up to 10% TCA and centrifuged. The TCA soluble radioactivity was counted. Inhibition of proteolysis was calculated as the percent decrease in TCA soluble radioactivity.

[4] = target: Human Pancreatic Chymotrypsin; test: Kinetic assay: inhibition of Human Pancreatic Chymotrypsin; format: biochemical; conditions: Table V
[5] = target: SDS-activated 20S proteasome from rabbit muscle (Oryctolagus cuniculus, UniProt G1SU71+G1T4Q9); test: Kinetic assay: inhibition of the 20S proteasome; format: biochemical
Experimental: (§1) P, AA^1, AA^2, AA^3, and Z^1 and Z^2 represent the structures present on formula (1) or (2). The protocol for the kinetic assay described in Tables II-V is as described in Rock et al., Cell 78:761-771 (1994). In these tables, Ki values are reported, which are dissociation constants for the equilibrium that is established when enzyme and inhibitor interact to form the enzyme:inhibitor complex. The reactions were performed using SDS-activated 20S proteasome from rabbit muscle. The substrate used was Suc-LLVY-AMC.

[6] = target: Cathepsin B (Homo sapiens, UniProt P07858); test: Kinetic assay: inhibition of Cathepsin B; format: biochemical; conditions: Table IV
Source text: [Worded in the source for another target; this target is reported under the same test.] as §1, with “Table II summarizes results from kinetic experiments that measured the inhibition of the 20S proteasome by compounds having the formula of compound (1) or (2). P,” for “P,”

[7] = Table II, SDS-activated 20S proteasome from rabbit muscle, substrate Suc-LLVY-AMC

| SMILES | Ki [1] [nM] | Ki [2] [µM] | IC50 [3] [nM] | Ki [4] [nM] | Ki [5, 7] [nM] | Ki ([5]; Table IV) [nM] | Ki ([5]; Table V) [nM] | Ki [6] [µM] |
| --- | --- | --- | --- | --- | --- | --- | --- | --- |
| CC(C)C[C@H](NC(=O)[C@H](CC(C)C)NC(=O)[C@H](CC(C)C)NC(=O)OCc1ccccc1)B(O)O [MG-262] | 15 | 0.055 | 280 | 7 | 0.035 | 0.035 | 0.03 | 6.1 |
| CC(C)C[C@H](NC(=O)[C@H](Cc1cccc2ccccc12)NC(=O)OCc1ccccc1)B1O[C@@H]2C[C@@H]3C[C@@H](C3(C)C)[C@]2(C)O1 [MG-267] | 150 | 33 | – | 2300 | 0.1 | – | 0.1 | – |
